Source: PMC7253723, “Chain-End Modifications and Sequence Arrangements of Antimicrobial Peptoids for Mediating Activity and Nano-Assembly” (Frontiers in Chemistry, 2020)
Like-named read-outs stand apart in the source and are kept apart here. Square brackets hold non-standard residues; d marks the D form. Peptide text beside a SMILES is read from it. * marks the point of attachment. N(1-naphthylmethyl)Gly = O=C(O)CNCc1cccc2ccccc12; N(4-MeBn)Gly = Cc1ccc(CNCC(=O)O)cc1; Palmitoyl = CCCCCCCCCCCCCCCC(=O)*; Nspe = C[C@H](NCC(=O)O)c1ccccc1; Nonanoyl = CCCCCCCCC(=O)*; AEEA = NCCOCCOCC(=O)O; NBuGly = CCCCNCC(=O)O; Nlys = NCCCCNCC(=O)O

Experiments:
[1] = Critical aggregation concentration (CAC) Nile red fluorescence assay; format: physicochemical; settings: Nile red fluorescence (~10 nM NR in water), lipopeptoids 2.5 × 10^-2 to 1 wt.%, excitation 552 nm, peak around 610 nm, room temperature; inflection in emission intensity
Description: Nile red (NR) fluorescence was used to measure critical aggregation concentration (CAC) for the synthesized lipopeptoids. Lipopeptoids were dissolved at 2.5 × 10^−2 to 1 wt.% in a dilute solution of Nile red (0.25 μg/100 mL, i.e. ~10 nM concentration) prepared in water. NR was excited at 552 nm and emission was recorded at room temperature in the range 550–750 nm using a 10.0 × 5.0 mm^2 quartz cell (Jasco spectrofluorimeter FP-6500). The intensity of the peak centered around 610 nm is shown in the data presented in Section results and discussion.
We first examined with a CAC assay whether coupling a hydrophobic tail to AMPMs and inserting the kk and EG2 components is a viable design for generating self-assembling lipopeptoids. The CAC measures the concentration above which hydrophobic pockets (e.g., lipophilic cores of micelles) are formed, and lower CACs indicate higher propensities of self-assembly. In our experiments, the CAC is indicated by an inflection in the increase in emission intensity of a lipophilic fluorophore tracer (Nile Red) that emits more strongly when partitioned into hydrophobic lower dielectric environments (see Figure S6 for an example analysis).

[2] = tested on: Pseudomonas aeruginosa (PA01); format: cell-based
Description: (§1) Technical triplicates (n = 3) or more of samples at each concentration were analyzed.

[3] = tested on: Staphylococcus aureus (NCTC 4135); format: cell-based
Description: as §1

[4] = tested on: Escherichia coli (ATCC 25922); format: cell-based
Description: as §1

[5] = PA01, MH broth microdilution (CLSI M07-A10), ~5 × 10^5 CFU/mL, overnight 37°C, OD 600 nm, MIC = concentration with OD halfway between minimum and maximum, sigmoidal fit ± SD, n = 3 or more, maximum tested 100 μM
[6] = MH broth microdilution (CLSI M07-A10), ~5 × 10^5 CFU/mL, overnight 37°C, OD 600 nm, MIC = concentration with OD halfway between minimum and maximum, sigmoidal fit ± SD, n = 3 or more, maximum tested 100 μM

Antimicrobial activity (MIC) P. aeruginosa [2] [µM] | Antimicrobial activity (MIC) S. aureus [3] [µM] | Antimicrobial activity (MIC) E. coli [4] [µM] | SMILES | CAC [1] [µM] | Antimicrobial activity (MIC) P. aeruginosa [2, 5] [µM] | Antimicrobial activity (MIC) S. aureus [3, 6] [µM] | Antimicrobial activity (MIC) E. coli [4, 6] [µM]
 |  |  | CCCCCCCCCCCCCCCC(=O)NCCOCCOCC(=O)N(CC(=O)N(CC(=O)N(CC(=O)N(CCCC)CC(=O)N(CCCCN)CC(=O)N(CCCCN)CC(=O)N(CCCCN)CC(=O)N(CCCCN)CC(=O)N(CCCCN)CC(N)=O)Cc1cccc2ccccc12)Cc1ccc(C)cc1)Cc1cccc2ccccc12 [C15-EG2-5k] ({Palmitoyl-AEEA}-[N(1-naphthylmethyl)Gly][N(4-MeBn)Gly][N(1-naphthylmethyl)Gly][NBuGly][Nlys][Nlys][Nlys][Nlys][Nlys]-NH2) | 360 ± 25 |  |  | 
19 ± 0.4 | 7 ± 0.1 | 7 ± 0.3 | CCCCN(CC(=O)N(CCCCN)CC(=O)N(CCCCN)CC(=O)N(CCCCN)CC(=O)N(CCCCN)CC(N)=O)C(=O)CN(Cc1cccc2ccccc12)C(=O)CN(Cc1ccc(C)cc1)C(=O)CNCc1cccc2ccccc12 [4k, reference compound] (H-[N(1-naphthylmethyl)Gly][N(4-MeBn)Gly][N(1-naphthylmethyl)Gly][NBuGly][Nlys][Nlys][Nlys][Nlys]-NH2) |  |  |  | 
41 ± 2 | 8 ± 0.3 | 74 ± 4 | CCCCCCCCC(=O)NCCOCCOCC(=O)N(CC(=O)N(CC(=O)N(CC(=O)N(CCCC)CC(=O)N(CCCCN)CC(=O)N(CCCCN)CC(=O)N(CCCCN)CC(=O)N(CCCCN)CC(=O)N(CCCCN)CC(N)=O)Cc1cccc2ccccc12)Cc1ccc(C)cc1)Cc1cccc2ccccc12 [C8-EG2-5k] ({Nonanoyl-AEEA}-[N(1-naphthylmethyl)Gly][N(4-MeBn)Gly][N(1-naphthylmethyl)Gly][NBuGly][Nlys][Nlys][Nlys][Nlys][Nlys]-NH2) | 1600 ± 390 |  |  | 
 |  |  | C[C@@H](c1ccccc1)N(CC(N)=O)C(=O)CN(C(=O)CN(CCCCN)C(=O)CN(C(=O)CN(C(=O)CN(CCCCN)C(=O)CN(C(=O)CN(C(=O)CN(CCCCN)C(=O)CN(C(=O)CN(C(=O)CNCCCCN)[C@@H](C)c1ccccc1)[C@@H](C)c1ccccc1)[C@@H](C)c1ccccc1)[C@@H](C)c1ccccc1)[C@@H](C)c1ccccc1)[C@@H](C)c1ccccc1)[C@@H](C)c1ccccc1 [(kss)4, reference compound] (H-[Nlys][Nspe][Nspe][Nlys][Nspe][Nspe][Nlys][Nspe][Nspe][Nlys][Nspe][Nspe]-NH2) |  | 16 ± 0.3 | 4 ± 0.3 | 6 ± 0.4
 |  |  | CCCCCCCCCCCCCCCC(=O)NCCOCCOCC(=O)N(CC(=O)N(CC(=O)N(CC(=O)N(CCCC)CC(=O)N(CCCCN)CC(=O)N(CCCCN)CC(=O)N(CCCCN)CC(=O)N(CCCCN)CC(N)=O)Cc1cccc2ccccc12)Cc1ccc(C)cc1)Cc1cccc2ccccc12 [C15-EG2-4k] ({Palmitoyl-AEEA}-[N(1-naphthylmethyl)Gly][N(4-MeBn)Gly][N(1-naphthylmethyl)Gly][NBuGly][Nlys][Nlys][Nlys][Nlys]-NH2) | 320 ± 24 |  |  | 
 |  |  | CCCCCCCCC(=O)NCCOCCOCC(=O)N(CCCCN)CC(=O)N(CC(=O)N(CC(=O)N(CCCCN)CC(=O)N(CC(=O)N(CC(=O)N(CCCCN)CC(=O)N(CC(=O)N(CC(=O)N(CCCCN)CC(=O)N(CCCCN)CC(N)=O)[C@@H](C)c1ccccc1)[C@@H](C)c1ccccc1)[C@@H](C)c1ccccc1)[C@@H](C)c1ccccc1)[C@@H](C)c1ccccc1)[C@@H](C)c1ccccc1 [C8-EG2-(kss)3-kk] ({Nonanoyl-AEEA}-[Nlys][Nspe][Nspe][Nlys][Nspe][Nspe][Nlys][Nspe][Nspe][Nlys][Nlys]-NH2) | 270 ± 30 | 6 ± 2 | 3 ± 1 | 2 ± 0.3
 |  |  | CCCCCCCCCCCCCCCC(=O)NCCOCCOCC(=O)N(CC(=O)N(CCCCN)CC(=O)N(CC(=O)N(CCCCN)CC(=O)N(CC(=O)N(CCCCN)CC(=O)N(CCCC)CC(=O)N(CCCCN)CC(N)=O)Cc1cccc2ccccc12)Cc1ccc(C)cc1)Cc1cccc2ccccc12 [C15-EG2-kykbk] ({Palmitoyl-AEEA}-[N(1-naphthylmethyl)Gly][Nlys][N(4-MeBn)Gly][Nlys][N(1-naphthylmethyl)Gly][Nlys][NBuGly][Nlys]-NH2) | 410 ± 32 |  |  | 
 |  |  | CCCCCCCCC(=O)NCCOCCOCC(=O)N(CCCCN)CC(=O)N(CC(=O)N(CC(=O)N(CCCCN)CC(=O)N(CC(=O)N(CC(=O)N(CCCCN)CC(=O)N(CCCCN)CC(N)=O)[C@@H](C)c1ccccc1)[C@@H](C)c1ccccc1)[C@@H](C)c1ccccc1)[C@@H](C)c1ccccc1 [C8-EG2-(kss)2-kk] ({Nonanoyl-AEEA}-[Nlys][Nspe][Nspe][Nlys][Nspe][Nspe][Nlys][Nlys]-NH2) | 200 ± 37 | 13 ± 3 | 9 ± 1 | 18 ± 3
 |  |  | C[C@@H](c1ccccc1)N(CC(N)=O)C(=O)CN(C(=O)CN(CCCCN)C(=O)CN(C(=O)CN(C(=O)CNCCCCN)[C@@H](C)c1ccccc1)[C@@H](C)c1ccccc1)[C@@H](C)c1ccccc1 [(kss)2, reference compound] (H-[Nlys][Nspe][Nspe][Nlys][Nspe][Nspe]-NH2) |  | 44 ± 2 | 41 ± 2 | >100
 |  |  | CCCCCCCCC(=O)NCCOCCOCC(=O)N(CC(=O)N(CC(=O)N(CC(=O)N(CCCC)CC(=O)N(CCCCN)CC(=O)N(CCCCN)CC(=O)N(CCCCN)CC(=O)N(CCCCN)CC(N)=O)Cc1cccc2ccccc12)Cc1ccc(C)cc1)Cc1cccc2ccccc12 [C8-EG2-4k] ({Nonanoyl-AEEA}-[N(1-naphthylmethyl)Gly][N(4-MeBn)Gly][N(1-naphthylmethyl)Gly][NBuGly][Nlys][Nlys][Nlys][Nlys]-NH2) | 2500 ± 350 | 16 ± 2 | 18 ± 3 | 17 ± 1
20 ± 1 | 9 ± 0.4 | 15 ± 1 | CCCCN(CC(=O)N(CCCCN)CC(N)=O)C(=O)CN(CCCCN)C(=O)CN(Cc1cccc2ccccc12)C(=O)CN(CCCCN)C(=O)CN(Cc1ccc(C)cc1)C(=O)CN(CCCCN)C(=O)CNCc1cccc2ccccc12 [Kykbk, reference compound] (H-[N(1-naphthylmethyl)Gly][Nlys][N(4-MeBn)Gly][Nlys][N(1-naphthylmethyl)Gly][Nlys][NBuGly][Nlys]-NH2) |  |  |  | 
15 ± 1 | 2 ± 0.2 | 4 ± 0.2 | C[C@@H](c1ccccc1)N(CC(N)=O)C(=O)CN(C(=O)CN(CCCCN)C(=O)CN(C(=O)CN(C(=O)CN(CCCCN)C(=O)CN(C(=O)CN(C(=O)CNCCCCN)[C@@H](C)c1ccccc1)[C@@H](C)c1ccccc1)[C@@H](C)c1ccccc1)[C@@H](C)c1ccccc1)[C@@H](C)c1ccccc1 [(kss)3, reference compound] (H-[Nlys][Nspe][Nspe][Nlys][Nspe][Nspe][Nlys][Nspe][Nspe]-NH2) |  |  |  | 
